Test results as given in patent US9551711B2, “Compositions and methods for detecting nitration of PKG-1α and methods of use thereof” (Augusta University Research Institute, Inc., priority 2013, dated 2017).

Tests used:
[1] = tested on: pulmonary artery smooth muscle cells (PASMC); test: PASMC immunocytochemistry for SM22-α and PCNA; type: cell-based, lamb; settings: SIN-1 500 μM, 48 h
Method: Semi-confluent PASMC grown on a coverslip in a 6-well plate were transfected with a mammalian expression plasmid containing either a wild-type (WT)- or Y247F-PKG-1α cDNA. After 20 h, the cells were serum starved (1% FBS) for 4 h then exposed or not to SIN-1 (500 μM) for 48 h. The cells were washed with PBS, methanol fixed (5 min), and permeabilized in 0.1% PBS-Tween (20 min). The cells were then washed 3× with PBS and blocked for non-specific protein-protein interactions with 1% BSA in PBS (1 h). The antibodies, smooth muscle (SM) 22-α (5 μg/ml) or proliferating cell nuclear antigen (PCNA) (1 μg/ml) diluted in 1% BSA in PBS, were added and incubated overnight at 4° C. The cells were again washed 3× with PBS and incubated in secondary antibody (green): Alexa Fluor 488 goat anti-mouse IgG (H+L) (1/1000 dilution) for PCNA or Alexa Fluor 488 donkey anti-goat IgG (H+L) (1/1000 dilution) for SM22-α for 1 h in the dark. DAPI was used to stain the cell nuclei (blue) at a concentration of 0.5 μg/ml for 3 min. The cells were rinsed 3× with PBS, and the coverslips were mounted on the slides with ProLong Gold Antifade and analyzed with the use of a Nikon Eclipse TE 300 inverted fluorescent microscope with a 60× oil objective and a Hamamatsu digital camera.
To assess the effect of nitration on pulmonary arterial smooth muscle cell (PASMC) phenotype, PASMC were transiently transfected with expression plasmids containing WT-PKG-1α, Y247F-PKG-1α, or PDEST40 (as a control) for 20 h. Cells were then exposed or not to SIN-1 (500 μM, 48 h) and the effect on synthetic and contractile markers determined. The levels of myosin heavy chain (MYH, FIG. 3A), Calponin-1 (FIG. 3B), and Vimentin (FIG. 3C) were determined. The blots were then stripped and re-probed for β-actin to normalize for protein loading. PASMC were also subjected to immunohistochemistry using antibodies to SM22-α (5 μg/ml) and PCNA (1 μg/ml). Relevant secondary antibodies linked to Alexa Fluor 488 (green) were then applied. DAPI was also used to stain (blue) the cell nuclei.

PKG-1α [2] = molecular target: T1, PKG-1α (Homo sapiens, UniProt Q13976, Y425F); test: PKG activity in transfected HEK-293T cells; type: cell-based; settings: HEK-293T expressing Y425F-PKG-1α; SIN-1 500 μM, 30 min
T1 construct: an expression plasmid containing a full length WT-PKG-1α cDNA; expressed in transfected cells; host or cells: HEK-293T
T1 sequence (Q13976 2-671 Y425F): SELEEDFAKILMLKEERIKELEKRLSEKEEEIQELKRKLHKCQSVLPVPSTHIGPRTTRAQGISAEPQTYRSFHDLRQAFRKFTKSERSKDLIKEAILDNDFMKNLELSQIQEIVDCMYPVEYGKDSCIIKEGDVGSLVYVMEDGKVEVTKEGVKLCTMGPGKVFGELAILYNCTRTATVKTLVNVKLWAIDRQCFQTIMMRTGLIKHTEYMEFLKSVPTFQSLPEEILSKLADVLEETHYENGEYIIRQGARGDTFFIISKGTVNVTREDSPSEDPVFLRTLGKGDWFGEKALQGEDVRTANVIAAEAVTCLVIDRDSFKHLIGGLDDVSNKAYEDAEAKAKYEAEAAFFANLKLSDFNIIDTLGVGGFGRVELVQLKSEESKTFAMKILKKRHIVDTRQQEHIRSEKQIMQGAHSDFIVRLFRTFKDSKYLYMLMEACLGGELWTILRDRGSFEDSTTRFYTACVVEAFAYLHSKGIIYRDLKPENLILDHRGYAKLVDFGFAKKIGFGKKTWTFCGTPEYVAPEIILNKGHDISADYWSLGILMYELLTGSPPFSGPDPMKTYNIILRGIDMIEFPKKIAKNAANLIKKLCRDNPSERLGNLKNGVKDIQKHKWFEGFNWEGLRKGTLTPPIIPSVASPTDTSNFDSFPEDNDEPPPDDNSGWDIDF
Method: (§1) To determine the role of tyrosine 247 and tyrosine 425 in mediating the nitration dependent inhibition of PKG-1α kinase activity, Y247F- and Y425F-PKG-1α mutants were generated and expressed in HEK-293T cells. HEK-293T cells were transiently transfected with expression plasmids containing WT-, Y247F-, or Y425F-PKG-1α for 48 h. […] Protein extracts were immunoprecipitated using an antibody raised against PKG-1α and the level of nitrated PKG-1α determined by probing the membranes with an antiserum raised against 3-NT. The blots were then stripped and re-probed for PKG-1α to normalize for the efficiency of the immunoprecipitation.
(§2) Total PKG activity was determined using a non-radioactive immunoassay in cell lysates, according to the manufacturer's directions. […]
(§3) After incubation for 30 min at 30° C. to allow the phosphorylation of the bound substrate, an HRP conjugated anti-phosphothreonine specific antibody was added to convert a chromogenic substrate to a colorimetric substrate that was subsequently read spectrophotometrically at 450 nm. The change in absorbance reflected the relative activity of PKG in the sample. […] The kinetic constants were determined using nonlinear regression (curve fit) analysis (GraphPad Prism Software Inc.).

PKG-1α [3] = test: PKG activity in transfected HEK-293T cells; type: cell-based, human; settings: HEK-293T; SIN-1 500 μM, 30 min
Method: as §1, §2, §3

3-morpholinosydnonimine N-ethylcarbamide [SIN-1]
PCNA staining ([1]; WT-PKG-1α expressing PASMC): increased | SM-22α expression ([1]; WT-PKG-1α expressing PASMC): attenuated | filamentous SM22-α expression and nuclear staining of PCNA ([1]; Y247F-PKG-1α expressing PASMC): unaffected | cGMP dependent PKG activity (PKG-1α [2]): attenuated | cGMP-independent PKG activity (PKG-1α [3]): did not alter
